Source: patent publication US20240228458A1, “PYRIMIDINE DERIVATIVE HAVING PROTEIN KINASE INHIBITORY ACTIVITY, AND THERAPEUTIC PHARMACEUTICAL COMPOSITION COMPRISING SAME” (THERAPEX CO., LTD., priority 2021, published 2024)

Columns and labels:
Assay type in all cases: cell-based
[1] = test system: Ba/F3 cells expressing del19/T790M/C797S (EGFR-DTC); test: Growth inhibition (GI50) of Ba/F3 cells expressing del19/T790M/C797S (EGFR-DTC), Celltiter glo; conditions: Mus musculus, BaF3, 72 h
Method: (§1) In this experimental example, a determination was made as to whether the compounds prepared in Examples 1-283 have the ability to inhibit the growth of Ba/F3 cells expressing EGFR-wt, del19/T790M/C797S (EGFR-DTC), L858R/T790M/C797S (EGFR-LTC), del19/T790M (EGFR-DT), and L858R/T790M (EGFR-LT) variants.
(§2) The parental Ba/F3 cell line is a population of cells that are not introduced with EGFR variants. Specifically, 100 μl of a cell line expressing each variant was plated in a 96-well plate at a density of 100,000 cells/ml. 10-point, 4-fold serial dilutions of each compound were prepared, starting at 2 mM. After 4 h, 0.5 μl of the compound (0.5% DMSO) was added, followed by incubation at 37° C. and 5% CO2 for 72 h. After incubation, the number of viable cells was measured using a Celltiter glo assay kit (Promega) and the GI50 of the compound was determined. The term “GI50” refers to the molar concentration (μM) of the compound required for 50% growth inhibition of cells.

[2] = test system: Ba/F3 cells expressing EGFR-wt; test: Growth inhibition (GI50) of Ba/F3 cells expressing EGFR-wt, Celltiter glo; conditions: Mus musculus, BaF3, 72 h
Method: as §1, §2

parental Ba/F3 cell line = test: Growth inhibition (GI50) of the parental Ba/F3 cell line (not introduced with EGFR variants), Celltiter glo; conditions: Mus musculus, BaF3, 72 h, parental Ba/F3 cells
Method: as §2

[3] = test system: Ba/F3 cells expressing L858R/T790M/C797S (EGFR-LTC); test: Growth inhibition (GI50) of Ba/F3 cells expressing L858R/T790M/C797S (EGFR-LTC), Celltiter glo; conditions: Mus musculus, BaF3, 72 h
Method: as §1, §2

Row | Structure (SMILES) | GI50 [1] [nM] | GI50 [2] [nM] | GI50 [3] [nM] | GI50 (parental Ba/F3 cell line) [nM]
1 | COc1cc(N2CCC(N3CCN(C)CC3)CC2)c(C)cc1Nc1ncc(Cl)c(Nc2ccccc2NS(C)(=O)=O)n1 [Example 2, N-(2-((5-chloro-2-((2-methoxy-5-methyl-4-(4-(4-methylpiperazin-1-yl)piperidin-1-yl)phenyl)amino)pyrimidin-4-yl)amino)phenyl)methanesulfonamide] | 1 to 25 | 100 to 500 | – | 500 to 2000
2 | COc1cc(N2CCC(N3CCN(C)CC3)CC2)c(Cl)cc1Nc1ncc(Cl)c(Nc2ccccc2NS(C)(=O)=O)n1 [Example 7, N-(2-((5-chloro-2-((5-chloro-2-methoxy-4-(4-(4-methylpiperazin-1-yl)piperidin-1-yl)phenyl)amino)pyrimidin-4-yl)amino)phenyl)methanesulfonamide] | 100 to 500 | 100 to 500 | 100 to 500 | 500 to 2000
3 | COc1nc(N2CCC(N(C)C)C2)ccc1NC1=[N+]=C(N(c2ccccc2NS(C)(=O)=O)S(C)(=O)=O)C(Cl)=CN1 (centres unmarked) [Example 8, N-(5-chloro-2-((6-(3-(dimethylamino)pyrrolidin-1-yl)-2-methoxypyridin-3-yl)amino)pyrimidin-4-yl)-N-(2-(methylsulfonamido)phenyl)methanesulfonamide] | 100 to 500 | 2000 to 10000 | 500 to 2000 | 2000 to 10000
4 | COc1cc(N2CCC(N3CCN(C)CC3)CC2)c(C)cc1Nc1ncc(Cl)c(N(c2ccccc2NS(C)(=O)=O)S(C)(=O)=O)n1 [Example 9, N-(5-chloro-2-((2-methoxy-5-methyl-4-(4-(4-methylpiperazin-1-yl)piperidin-1-yl)phenyl)amino)pyrimidin-4-yl)-N-(2-(methylsulfonamido)phenyl)methanesulfonamide] | 100 to 500 | 100 to 500 | 25 to 100 | 500 to 2000
5 | COc1nc(N2CCC(N3CCN(C)CC3)CC2)ccc1Nc1ncc(Cl)c(N(c2ccccc2NS(C)(=O)=O)S(C)(=O)=O)n1 [Example 10, N-(5-chloro-2-((2-methoxy-6-(4-(4-methylpiperazin-1-yl)piperidin-1-yl)pyridin-3-yl)amino)pyrimidin-4-yl)-N-(2-(methylsulfonamido)phenyl)methanesulfonamide] | 500 to 2000 | 500 to 2000 | 500 to 2000 | 2000 to 10000
6 | COc1cc(N2CCC(N3CCN(C)CC3)CC2)c(C)cc1Nc1ncc(Cl)c(N(C)c2ccccc2N(C)S(C)(=O)=O)n1 [Example 11] | 500 to 2000 | 2000 to 10000 | 500 to 2000 | 500 to 2000
7 | COc1cc(N2CCC(N3CCN(C)CC3)CC2)c(C)cc1Nc1ncc(Cl)c(Nc2ccc(F)cc2NS(C)(=O)=O)n1 [Example 12] | 25 to 100 | 100 to 500 | – | 2000 to 10000
8 | CN1CCN(C2CCN(c3ccc(Nc4ncc(Cl)c(Nc5ccc(F)cc5NS(C)(=O)=O)n4)cn3)CC2)CC1 [Example 14] | 2000 to 10000 | > 10000 | – | 2000 to 10000
9 | CN1CCN(C2CCN(c3ncc(Nc4ncc(Cl)c(Nc5ccc(F)cc5NS(C)(=O)=O)n4)cc3F)CC2)CC1 [Example 16] | 500 to 2000 | 2000 to 10000 | – | 500 to 2000
10 | COc1nc(N2CCC(N3CCN(C)CC3)CC2)ccc1Nc1ncc(Cl)c(Nc2ccc(F)cc2NS(C)(=O)=O)n1 [Example 17, N-(2-((5-chloro-2-((2-methoxy-6-(4-(4-methylpiperazin-1-yl)piperidin-1-yl)pyridin-3-yl)amino)pyrimidin-4-yl)amino)-5-fluorophenyl)methanesulfonamide] | 500 to 2000 | 2000 to 10000 | – | 2000 to 10000
11 | CNS(=O)(=O)c1ccccc1Nc1nc(Nc2cc(C)c(N3CCC(N4CCN(C)CC4)CC3)cc2OC)ncc1Cl [Example 50, 2-((5-chloro-2-((2-methoxy-5-methyl-4-(4-(4-methylpiperazin-1-yl)piperidin-1-yl)phenyl)amino)pyrimidin-4-yl)amino)-N-methylbenzenesulfonamide] | 100 to 500 | 500 to 2000 | – | 500 to 2000
12 | CNS(=O)(=O)c1ccccc1Nc1nc(Nc2ccc(N3CCC(N4CCN(C)CC4)CC3)nc2OC)ncc1Cl [Example 55, 2-((5-chloro-2-((2-methoxy-6-(4-(4-methylpiperazin-1-yl)piperidin-1-yl)pyridin-3-yl)amino)pyrimidin-4-yl)amino)-N-methylbenzenesulfonamide] | 500 to 2000 | 500 to 2000 | – | 100 to 500
13 | COc1cc(N2CCC(N3CCN(C)CC3)CC2)c(C)cc1Nc1ncc(Cl)c(Nc2ccccc2S(=O)(=O)NC2CC2)n1 [Example 59, 2-((5-chloro-2-((2-methoxy-5-methyl-4-(4-(4-methylpiperazin-1-yl)piperidin-1-yl)phenyl)amino)pyrimidin-4-yl)amino)-N-cyclopropylbenzenesulfonamide] | 500 to 2000 | 500 to 2000 | – | 500 to 2000
14 | CN1CCN(C2CCN(c3ccc(Nc4ncc(Cl)c(Nc5ccccc5S(=O)(=O)NC5CC5)n4)cc3F)CC2)CC1 [Example 60, 2-((5-chloro-2-((3-fluoro-4-(4-(4-methylpiperazin-1-yl)piperidin-1-yl)phenyl)amino)pyrimidin-4-yl)amino)-N-cyclopropylbenzenesulfonamide] | 25 to 100 | 100 to 500 | – | 100 to 500
15 | COc1nc(N2CCC(N3CCN(C)CC3)CC2)ccc1Nc1ncc(Cl)c(Nc2ccccc2S(=O)(=O)NC2CC2)n1 [Example 61] | 2000 to 10000 | 2000 to 10000 | – | 500 to 2000

Now from value to compound, other results behind:

Row | GI50 [1] [nM] | GI50 [2] [nM] | GI50 [3] [nM] | Structure (SMILES) | GI50 (parental Ba/F3 cell line) [nM]
16 | 100 to 500 | 500 to 2000 | – | CCN1CCN(c2ccc(Nc3ncc(Cl)c(Nc4ccccc4NS(C)(=O)=O)n3)c(OC)n2)CC1 [Example 1] | 2000 to 10000
17 | 100 to 500 | 500 to 2000 | – | CN1CCN(C2CCN(c3ccc(Nc4ncc(Cl)c(Nc5ccccc5NS(C)(=O)=O)n4)cn3)CC2)CC1 [Example 3, N-(2-((5-chloro-2-((6-(4-(4-methylpiperazin-1-yl)piperidin-1-yl)pyridin-3-yl)amino)pyrimidin-4-yl)amino)phenyl)methanesulfonamide] | 500 to 2000
18 | 500 to 2000 | 2000 to 10000 | – | CN1CCN(C2CCN(c3ccc(Nc4ncc(Cl)c(Nc5ccccc5NS(C)(=O)=O)n4)c(OCC(F)(F)F)n3)CC2)CC1 [Example 4, N-(2-((5-chloro-2-((6-(4-(4-methylpiperazin-1-yl)piperidin-1-yl)-2-(2,2,2-trifluoroethoxy)pyridin-3-yl)amino)pyrimidin-4-yl)amino)phenyl)methanesulfonamide] | 2000 to 10000
19 | 1 to 25 | 100 to 500 | – | CN1CCN(C2CCN(c3ccc(Nc4ncc(Cl)c(Nc5ccccc5NS(C)(=O)=O)n4)cc3F)CC2)CC1 [Example 5, N-(2-((5-chloro-2-((3-fluoro-4-(4-(4-methylpiperazin-1-yl)piperidin-1-yl)phenyl)amino)pyrimidin-4-yl)amino)phenyl)methanesulfonamide] | 25 to 100
20 | 100 to 500 | 500 to 2000 | – | CS(=O)(=O)Nc1cc(F)ccc1Nc1nc(Nc2ccc(N3CCOCC3)nc2)ncc1Cl [Example 13] | 500 to 2000
21 | 2000 to 10000 | 2000 to 10000 | – | COc1cc(N2CCC(N3CCN(C)CC3)CC2)c(C)cc1Nc1ncc(Cl)c(Nc2ccccc2C(F)(F)F)n1 [Example 46] | 2000 to 10000
22 | 500 to 2000 | 2000 to 10000 | – | COc1cc(N2CCC(N3CCN(C)CC3)CC2)ccc1Nc1ncc(Cl)c(Nc2ccccc2C(F)(F)F)n1 [Example 47] | 2000 to 10000
23 | 500 to 2000 | 2000 to 10000 | – | CCN1CCN(c2ccc(Nc3ncc(Cl)c(Nc4ccccc4C(F)(F)F)n3)cc2)CC1 [Example 48] | 2000 to 10000
24 | 500 to 2000 | 2000 to 10000 | – | FC(F)(F)c1ccccc1Nc1nc(Nc2ccc(N3CCOCC3)nc2)ncc1Cl [Example 49] | 2000 to 10000
25 | 100 to 500 | 2000 to 10000 | – | CNS(=O)(=O)c1ccccc1Nc1nc(Nc2ccc(N3CCC(N4CCN(C)CC4)CC3)cc2OC)ncc1Cl [Example 51, 2-((5-chloro-2-((2-methoxy-4-(4-(4-methylpiperazin-1-yl)piperidin-1-yl)phenyl)amino)pyrimidin-4-yl)amino)-N-methylbenzenesulfonamide] | 2000 to 10000
26 | 25 to 100 | 100 to 500 | – | CNS(=O)(=O)c1ccccc1Nc1nc(Nc2ccc(N3CCC(N4CCN(C)CC4)CC3)nc2)ncc1Cl [Example 52, 2-((5-chloro-2-((6-(4-(4-methylpiperazin-1-yl)piperidin-1-yl)pyridin-3-yl)amino)pyrimidin-4-yl)amino)-N-methylbenzenesulfonamide] | 100 to 500
27 | 100 to 500 | 100 to 500 | – | CNS(=O)(=O)c1ccccc1Nc1nc(Nc2ccc(N3CCOCC3)nc2)ncc1Cl [Example 53, 2-((5-chloro-2-((6-morpholinopyridin-3-yl)amino)pyrimidin-4-yl)amino)-N-methylbenzenesulfonamide] | 100 to 500
28 | 2000 to 10000 | 100 to 500 | – | CCN1CCN(c2ccc(Nc3ncc(Cl)c(Nc4ccccc4S(=O)(=O)NC)n3)c(OC)n2)CC1 [Example 54, 2-((5-chloro-2-((6-(4-ethylpiperazin-1-yl)-2-methoxypyridin-3-yl)amino)pyrimidin-4-yl)amino)-N-methylbenzenesulfonamide] | 2000 to 10000
